Data taken from patent US20220274954A1, “SUBSTITUTED N-PHENYL-N-AMINOUARCILS AND SALTS THEREOF AND USE THEREOF AS HERBICIDAL AGENTS” (Bayer Aktiengesellschaft, priority 2019, published 2022).

Columns and labels:
Format in all cases: in vivo
[1] = test system: Oryza sativa; assay: Post-emergence crop plant compatibility
Description: (§1) Seeds of monocotyledonous and dicotyledonous weeds and crop plants were placed in sandy loam in plastic or wood-fiber pots, covered with soil and cultivated in a greenhouse under controlled growth conditions. 2 to 3 weeks after sowing, the test plants were treated at the one-leaf stage. The compounds of the invention, formulated in the form of wettable powders (WP) or as emulsion concentrates (EC), were then sprayed onto the green parts of the plants as aqueous suspension or emulsion with addition of 0.5% additive at a water application rate of […] (converted). After the test plants had been kept in the greenhouse under optimum growth conditions for about 3 weeks, the activity of the preparations was rated visually in comparison to untreated controls. For example, 100% activity=the plants have died, 0% activity=like control plants.
(§2) Here, the observed effects on selected crop plants are stated in comparison to the untreated controls (values in %).

[2] = test system: Triticum aestivum; assay: Post-emergence crop plant compatibility
Description: as §1, §2

[3] = test system: Alopecurus myosuroides; assay: Post-emergence herbicidal action
Description: as §1, with “plants. Tables A1 to A14 below show the effects of selected compounds of the general formula (I) according to Tables I.1 to I.34 on various harmful plants and at an application rate corresponding to 20 g/ha and less, which were obtained by the experimental procedure mentioned above.” for “plants.”

[4] = test system: Abutilon theophrasti; assay: Post-emergence herbicidal action
Description: as §1, with “plants. Tables A1 to A14 below show the effects of selected compounds of the general formula (I) according to Tables I.1 to I.34 on various harmful plants and at an application rate corresponding to 20 g/ha and less, which were obtained by the experimental procedure mentioned above.” for “plants.”

[5] = test system: Matricaria inodora; assay: Post-emergence herbicidal action
Description: as §1, with “plants. Tables A1 to A14 below show the effects of selected compounds of the general formula (I) according to Tables I.1 to I.34 on various harmful plants and at an application rate corresponding to 20 g/ha and less, which were obtained by the experimental procedure mentioned above.” for “plants.”

[6] = test system: Viola tricolor; assay: Post-emergence herbicidal action
Description: as §1, with “plants. Tables A1 to A14 below show the effects of selected compounds of the general formula (I) according to Tables I.1 to I.34 on various harmful plants and at an application rate corresponding to 20 g/ha and less, which were obtained by the experimental procedure mentioned above.” for “plants.”

[7] = test system: Veronica persica; assay: Post-emergence herbicidal action
Description: as §1, with “plants. Tables A1 to A14 below show the effects of selected compounds of the general formula (I) according to Tables I.1 to I.34 on various harmful plants and at an application rate corresponding to 20 g/ha and less, which were obtained by the experimental procedure mentioned above.” for “plants.”

[8] = test system: Pharbitis purpurea; assay: Post-emergence herbicidal action
Description: as §1, with “plants. Tables A1 to A14 below show the effects of selected compounds of the general formula (I) according to Tables I.1 to I.34 on various harmful plants and at an application rate corresponding to 20 g/ha and less, which were obtained by the experimental procedure mentioned above.” for “plants.”

[9] = test system: Echinochloa crus-galli; assay: Post-emergence herbicidal action
Description: as §1, with “plants. Tables A1 to A14 below show the effects of selected compounds of the general formula (I) according to Tables I.1 to I.34 on various harmful plants and at an application rate corresponding to 20 g/ha and less, which were obtained by the experimental procedure mentioned above.” for “plants.”

[10] = test system: Amaranthus retroflexus; assay: Post-emergence herbicidal action
Description: as §1, with “plants. Tables A1 to A14 below show the effects of selected compounds of the general formula (I) according to Tables I.1 to I.34 on various harmful plants and at an application rate corresponding to 20 g/ha and less, which were obtained by the experimental procedure mentioned above.” for “plants.”

[11] = test system: Lolium rigidum; assay: Post-emergence herbicidal action; settings: application rate 20 g/ha
Description: as §1, with “plants. Tables A1 to A14 below show the effects of selected compounds of the general formula (I) according to Tables I.1 to I.34 on various harmful plants and at an application rate corresponding to 20 g/ha and less, which were obtained by the experimental procedure mentioned above.” for “plants.”

[12] = test system: Zea mays; assay: Post-emergence crop plant compatibility; settings: application rate 5 g/ha
Description: as §1, §2

[13] = test system: Avena fatua; assay: Post-emergence herbicidal action; settings: application rate 20 g/ha
Description: as §1, with “plants. Tables A1 to A14 below show the effects of selected compounds of the general formula (I) according to Tables I.1 to I.34 on various harmful plants and at an application rate corresponding to 20 g/ha and less, which were obtained by the experimental procedure mentioned above.” for “plants.”

| Structure (SMILES) | Oryza sativa (efficacy in %) ([1]; application rate 1.25 g/ha) [%] | Triticum aestivum (efficacy in %) ([2]; application rate 1.25 g/ha) [%] | Alopecurus myosuroides (efficacy in %) ([3]; application rate 5 g/ha) [%] | Alopecurus myosuroides (efficacy in %) ([3]; application rate 20 g/ha) [%] | Abutilon theophrasti (efficacy in %) ([4]; application rate 5 g/ha) [%] | Abutilon theophrasti (efficacy in %) ([4]; application rate 20 g/ha) [%] | Matricaria inodora (efficacy in %) ([5]; application rate 5 g/ha) [%] | Matricaria inodora (efficacy in %) ([5]; application rate 20 g/ha) [%] | Viola tricolor (efficacy in %) ([6]; application rate 5 g/ha) [%] | Viola tricolor (efficacy in %) ([6]; application rate 20 g/ha) [%] | Veronica persica (efficacy in %) ([7]; application rate 5 g/ha) [%] | Veronica persica (efficacy in %) ([7]; application rate 20 g/ha) [%] | Pharbitis purpurea (efficacy in %) ([8]; application rate 5 g/ha) [%] | Pharbitis purpurea (efficacy in %) ([8]; application rate 20 g/ha) [%] | Echinochloa crus-galli (efficacy in %) ([9]; application rate 5 g/ha) [%] | Echinochloa crus-galli (efficacy in %) ([9]; application rate 20 g/ha) [%] | Amaranthus retroflexus (efficacy in %) ([10]; application rate 5 g/ha) [%] | Amaranthus retroflexus (efficacy in %) ([10]; application rate 20 g/ha) [%] | Lolium rigidum (efficacy in %) [11] [%] | further results |
| --- | --- | --- | --- | --- | --- | --- | --- | --- | --- | --- | --- | --- | --- | --- | --- | --- | --- | --- | --- | --- |
| Nn1c(C(F)(F)F)cc(=O)n(-c2cc(Sc3cccnc3OCC(=O)O)c(Cl)cc2F)c1=O [I.1-481] | 10 | 20 | 100 | 100 | 100 | 100 | 90 | 100 | 100 | 100 | 100 | 100 | 80 | 100 | 90 | 100 | 100 | 100 | 80 | Oryza sativa (efficacy in %) ([1]; application rate 5 g/ha): 20% |
| C=CCOC(=O)COc1ncccc1Sc1cc(-n2c(=O)cc(C(F)(F)F)n(N)c2=O)c(F)cc1Cl [I.1-471] | 0 | 10 | 80 | 100 | 100 | 100 | 100 | 100 | 100 | 100 | 100 | 100 | 100 | 100 | 90 | 100 | 100 | 100 | 80 | Zea mays (efficacy in %) [12]: 20%; Triticum aestivum (efficacy in %) ([2]; application rate 5 g/ha): 20%; Avena fatua (efficacy in %) [13]: 80% |
